# Experimental data from the supplement of paper PMC10307832.
# Experiments:
# Assay in all cases: relative viability (nuclei count vs DMSO), 5 days (fraction); higher = more cells survive
# [1] = compound: C[C@]1(O)C[C@@H](c2nc(-c3ccc4ccc(-c5ccccc5)nc4c3)c3c(N)nccn32)C1 [Linsitinib] + Cc1nc(Nc2ncc(C(=O)Nc3c(C)cccc3Cl)s2)cc(N2CCN(CCO)CC2)n1 [Dasatinib] (partner 0.075 µM)
# Method in brief: (§1)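 A single step with final 0.05% Triton X-100, 1% formaldehyde and 1 ug/ml Hoechst fixed the cells and stained nuclei 5 days after treatment. Lung cancer cell lines in 1536-well plates had been treated by pin tool the day after seeding with one drug alone or a fixed anchor-drug dose plus five library-drug doses (not always all listed) in √10 steps, and nuclei were counted on 4× images. Relative viability is the ratio of nuclei in treated wells to nuclei in vehicle wells, taken as the median of duplicate plates.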
# [2] = compound: C[C@]1(O)C[C@@H](c2nc(-c3ccc4ccc(-c5ccccc5)nc4c3)c3c(N)nccn32)C1 [Linsitinib] + COc1cccc2cc(-c3nc([C@H]4CC[C@H](C(=O)O)CC4)n4ncnc(N)c34)[nH]c12 [OSI-027] (partner 0.5 µM)
# Method in brief: as §1
# [3] = compound: C[C@]1(O)C[C@@H](c2nc(-c3ccc4ccc(-c5ccccc5)nc4c3)c3c(N)nccn32)C1 [Linsitinib] + Nc1ncn([C@H]2C[C@H](O)[C@@H](CO)O2)c(=O)n1 [Decitabine] (partner 2 µM)
# Method in brief: as §1
# [4] = compound: Cc1ccc(C(=O)N(CCCN)[C@@H](c2nc3cc(Cl)ccc3c(=O)n2Cc2ccccc2)C(C)C)cc1 [Ispinesib] + CC(=O)Nc1cccc(-n2c(=O)n(C3CC3)c(=O)c3c(Nc4ccc(I)cc4F)n(C)c(=O)c(C)c32)c1 [Trametinib] (partner 0.02 µM)
# Method in brief: as §1
Cell Line,relative viability ([1]; first compound 0.01 µM),relative viability ([1]; first compound 0.03162 µM),relative viability ([1]; first compound 0.1 µM),relative viability ([1]; first compound 0.3162 µM),relative viability ([1]; first compound 1 µM),relative viability ([2]; first compound 0.01 µM),relative viability ([2]; first compound 0.03162 µM),relative viability ([2]; first compound 0.1 µM),relative viability ([2]; first compound 0.3162 µM),relative viability ([2]; first compound 1 µM),relative viability ([3]; first compound 0.01 µM),relative viability ([3]; first compound 0.03162 µM),relative viability ([3]; first compound 0.1 µM),relative viability ([3]; first compound 0.3162 µM),relative viability ([3]; first compound 1 µM),relative viability ([4]; first compound 0.001 µM),relative viability ([4]; first compound 0.003162 µM),relative viability ([4]; first compound 0.01 µM),relative viability ([4]; first compound 0.03162 µM),relative viability ([4]; first compound 0.1 µM)
EMC-BAC-2,0.318,0.323,0.289,0.445,0.197,0.365,0.377,0.336,0.341,0.247,0.98,1.11,0.881,0.733,0.727,0.846,0.966,0.965,0.624,0.312
NCI-H441,0.484,0.55,0.614,0.349,0.303,0.672,0.616,0.546,0.307,0.312,0.246,0.26,0.223,0.212,0.257,0.47,0.458,0.284,0.255,0.212
LCLC-103H,0.444,0.517,0.474,0.428,0.368,0.44,0.475,0.42,0.356,0.367,0.757,0.713,0.658,0.628,0.739,0.724,0.7,0.723,0.667,0.654
HOP-62,0.65,0.692,0.643,,0.565,0.877,0.866,0.96,,0.544,0.194,0.241,0.194,,0.201,0.349,0.373,0.406,0.441,0.42
NCI-H1793,0.434,0.367,0.382,0.332,0.392,0.25,0.314,0.246,0.205,0.175,0.428,0.634,0.547,0.422,0.454,0.47,0.433,0.412,0.421,0.244
NCI-H1355,0.627,0.68,0.518,0.525,0.254,0.419,0.41,0.307,0.244,0.226,0.378,0.353,0.334,0.309,0.317,0.469,0.456,0.41,0.414,0.288
COR-L23,0.424,0.456,0.416,0.375,0.346,0.626,0.968,0.804,0.52,0.509,0.399,0.539,0.418,0.351,0.441,0.611,0.565,0.376,0.103,0.168
A-427,0.712,0.78,0.723,,0.631,0.448,0.432,0.5,,0.357,0.597,0.595,0.577,,0.523,0.721,0.811,0.745,0.463,0.226
NCI-H520,0.191,0.192,0.2,,0.195,0.232,0.188,0.25,,0.332,0.456,0.59,0.501,,0.555,0.775,0.663,0.557,0.229,0.221
LXF-289,0.244,0.203,0.182,,0.191,0.769,0.757,0.795,,0.515,0.366,0.481,0.382,0.333,0.39,0.667,0.729,0.762,0.629,0.606
NCI-H2087,0.756,0.917,0.819,0.549,0.624,0.691,0.582,0.463,0.362,0.182,0.275,0.387,0.257,0.259,0.267,0.153,0.196,0.212,0.236,0.0806
NCI-H596,0.643,0.673,0.625,0.647,0.437,0.7,0.694,0.802,0.674,0.448,1.03,1.06,1.11,0.976,1.01,0.745,0.876,0.799,0.83,0.706
PC-14,0.285,0.274,0.282,0.202,0.19,0.746,0.706,0.798,0.568,0.546,0.2,0.196,0.22,0.158,0.172,0.788,0.707,0.282,0.0652,0.101
NCI-H1915,0.306,0.351,0.299,0.331,0.234,0.646,0.678,0.623,0.515,0.392,0.272,0.312,0.266,0.247,0.263,0.29,0.323,0.314,0.279,0.22
NCI-H647,0.206,0.203,0.165,,0.158,0.679,0.658,0.582,,0.428,0.39,0.524,0.395,0.405,0.43,0.536,0.508,0.434,0.209,0.133
NCI-H322M,0.244,0.256,0.229,0.223,0.26,0.547,0.47,0.531,0.361,0.384,0.68,0.818,0.719,0.757,0.674,0.529,0.586,0.449,0.514,0.467
NCI-H2170,0.56,0.569,0.519,0.409,0.488,0.752,0.756,0.708,0.417,0.638,0.445,0.528,0.461,,0.468,1.02,0.933,1.09,0.684,0.488

Cell Line,relative viability ([1]; first compound 0.01 µM),relative viability ([1]; first compound 0.03162 µM),relative viability ([1]; first compound 0.1 µM),relative viability ([1]; first compound 0.3162 µM),relative viability ([1]; first compound 1 µM),relative viability ([2]; first compound 0.01 µM),relative viability ([2]; first compound 0.03162 µM),relative viability ([2]; first compound 0.1 µM),relative viability ([2]; first compound 0.3162 µM),relative viability ([2]; first compound 1 µM),relative viability ([3]; first compound 0.01 µM),relative viability ([3]; first compound 0.03162 µM),relative viability ([3]; first compound 0.1 µM),relative viability ([3]; first compound 0.3162 µM),relative viability ([3]; first compound 1 µM),relative viability ([4]; first compound 0.001 µM),relative viability ([4]; first compound 0.003162 µM),relative viability ([4]; first compound 0.01 µM),relative viability ([4]; first compound 0.03162 µM),relative viability ([4]; first compound 0.1 µM)
BEN,0.419,0.316,0.318,,0.352,0.346,0.27,0.258,,0.249,0.526,0.945,0.65,0.442,0.747,1.07,1.17,1.15,0.916,0.677
NCI-H2009,0.285,0.262,0.274,,0.2,0.746,0.646,0.696,,0.428,0.36,0.4,0.366,0.359,0.396,0.28,0.271,0.287,0.203,0.151
LC-2-ad,0.481,0.31,0.385,0.271,0.236,0.803,0.827,0.684,0.414,0.422,0.776,0.719,0.864,0.726,0.742,0.934,0.944,0.92,0.9,0.474
NCI-H1437,0.352,0.308,0.463,0.505,0.463,0.874,0.885,1.02,0.853,0.893,0.541,0.551,0.555,0.4,0.599,0.557,0.541,0.688,0.614,0.144
NCI-H3122,0.846,0.808,0.765,0.218,0.514,0.994,0.868,1.03,,0.487,0.442,0.388,0.424,,0.462,0.284,0.252,0.246,0.316,0.162
NCI-H727,0.421,0.274,0.372,0.252,0.252,0.609,0.597,0.608,0.347,0.358,0.671,1.05,0.752,0.58,0.63,0.376,0.39,,0.382,0.419
NCI-H1734,0.473,0.488,0.45,0.504,0.315,0.737,0.469,0.634,0.504,0.293,0.512,0.502,0.463,0.516,0.487,0.685,0.622,0.684,0.684,0.429
HCC-15,0.62,0.559,0.519,,0.35,0.677,0.677,0.616,,0.246,0.63,0.509,0.61,0.28,0.368,0.262,0.42,0.422,0.381,0.296
NCI-H2405,0.189,0.207,0.202,0.34,0.18,0.624,0.638,0.637,0.53,0.347,0.709,0.813,0.713,0.686,0.588,0.708,0.632,0.525,0.566,0.478
NCI-H1993,0.645,0.584,0.509,0.738,0.475,0.502,0.534,0.525,0.407,0.679,0.646,0.564,0.473,0.506,0.499,0.619,0.527,0.414,0.508,0.423
NCI-H1650,0.291,0.293,0.355,0.258,0.241,0.576,0.598,0.527,0.242,0.222,0.571,0.449,0.415,0.325,0.361,0.726,0.581,0.556,0.417,0.315
NCI-H460,0.578,0.393,0.441,0.34,0.146,0.736,0.646,0.701,0.507,0.304,0.497,0.483,0.511,,0.424,0.225,0.207,0.218,0.0463,0.0454
NCI-H1651,0.343,0.386,0.416,0.251,0.301,0.646,0.654,0.646,0.581,0.543,0.316,0.744,0.518,0.516,0.597,0.836,0.896,0.887,0.882,0.831
NCI-H1975,0.37,0.349,0.331,0.241,0.235,0.68,0.738,0.722,0.544,0.347,0.375,0.452,0.376,0.34,0.363,0.345,0.337,0.364,0.158,0.158
NCI-H2126,0.596,0.649,0.527,0.273,0.27,0.671,0.909,0.596,0.478,0.358,0.6,0.675,0.574,0.544,0.577,0.542,0.574,0.58,0.589,0.508
201T,0.604,0.581,0.531,0.725,0.439,0.808,0.799,1.01,0.829,0.342,0.868,0.881,0.904,0.832,0.889,0.743,0.75,0.729,0.692,0.678
